We go through 13 compounds from PubChem BioAssay (NCI).

Assay in all cases: inhibition of tumour cell growth, NCI panel, 48 h
In experiment [1] the test system is RXF 393 renal.
Experiment [2] relates to KM12 colon.
The subject of experiment [3] is MDA-MB-435.
The test system of experiment [4] is SF-295 CNS.
Experiment [5] deals with BT-549 breast.
Experiment [6] concerns T-47D breast.
The subject of experiment [7] is SNB-19 CNS.
In experiment [8] the test system is SF-539 CNS.
The subject of experiment [9] is SK-MEL-2 melanoma.
The subject of experiment [10] is OVCAR-5 ovarian.
The test system of experiment [11] is HCT-116 colon.

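Growth conditions: 96-well plates. Treatment: test compound, 48 hours, 5 concentrations. Analysis: linear interpolation between bracketing concentrations; unreached endpoints set to highest concentration. TGI: total growth inhibition.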 Some results are limits rather than exact numbers.

For `CCOC(=O)Cn1nnc2ccc(Nc3nc4ccccc4nc3C(=O)OCC)cc21`, the TGI in experiment [1], in [2], in experiment [3], in [4], in [5] and in experiment [6] was greater than 100 µM each time. In addition, the TGI was greater than 100 µM in [7]; 91.8 µM in [8]; greater than 100 µM in experiment [9]; greater than 100 µM in experiment [10]; greater than 100 µM in [11].
For `O=C1O/C(=C(\Br)c2ccc([N+](=O)[O-])cc2)c2ccccc21`, the TGI in [1], in experiment [2], in [3], in experiment [4], in experiment [5] and in experiment [6] was greater than 100 µM in each case. For the same compound, the TGI in experiment [7], in [8], in experiment [9], in experiment [10] and in [11] was greater than 100 µM in each case.
Take `Nc1nc(N)c2cc(-c3cc4ccccc4[nH]3)ccc2n1`: the TGI in [1] was 48.4 µM; in experiment [2], 43.5 µM; in experiment [3] it was 38.6 µM; in experiment [4], 90.2 µM; in experiment [5], 80.3 µM; in experiment [6] it was 21.7 µM. Further, the TGI was greater than 100 µM in [7]; 51.7 µM in experiment [8]; 36.4 µM in [9]; 65 µM in experiment [10]; greater than 100 µM in experiment [11].
Regarding `CC1=NN(c2ccccc2)C(=O)/C1=C1\SC(c2ccccc2)(c2ccccc2)c2ccccc21`, the TGI in experiment [1], in experiment [2], in experiment [3], in experiment [4], in experiment [5] and in experiment [6] was greater than 100 µM in each case. Also, the TGI in experiment [7], in experiment [8], in experiment [9], in [10] and in experiment [11] was greater than 100 µM each time.
For the compound `O=C(O)CSC1=NCCN1`, the TGI in [1], in [2], in experiment [3], in [4], in [5] and in [6] was greater than 100 µM throughout. Also, the TGI in experiment [7], in experiment [8], in [9], in experiment [10] and in [11] was greater than 100 µM each time.
Regarding `O=C1C(NS(=O)(=O)c2ccccc2)=C(n2ccnc2)C(=O)c2ccccc21`, the TGI in experiment [1], in experiment [2], in [3], in experiment [4], in [5] and in [6] was greater than 100 µM throughout. For the same compound, the TGI in experiment [7], in [8], in [9], in experiment [10] and in experiment [11] was greater than 100 µM in each case.
Turning to `COc1cc(O)c2c(=O)c3cccc(C)c3[nH]c2c1`, the TGI in experiment [1], in experiment [2], in experiment [3], in experiment [4], in experiment [5] and in experiment [6] was greater than 10 µM each time. Further, the TGI in experiment [7], in experiment [8], in [9], in experiment [10] and in experiment [11] was greater than 10 µM in each case.
For `Cc1ccc(N=NC(=Nc2ccc(F)cc2)c2ccc(N(CCC#N)CCC#N)cc2)cc1`, the TGI in [1], in experiment [2], in experiment [3], in [4], in experiment [5] and in experiment [6] was greater than 100 µM in each case. The TGI in [7], in experiment [8], in experiment [9], in experiment [10] and in experiment [11] was greater than 100 µM each time.
As for `COC(=O)/C(=C(/C)c1ccco1)P(=O)(OC)OC`, the TGI in experiment [1], in [2], in [3], in [4], in experiment [5] and in experiment [6] was greater than 100 µM each time. Further, the TGI in experiment [7], in experiment [8], in experiment [9], in experiment [10] and in [11] was greater than 100 µM in each case.
As for `CC1(N2CCOCC2)CC2C(=[N+]1[O-])CCC/C2=N/O` (stereo not drawn), the TGI in experiment [1], in experiment [2], in experiment [3], in [4], in [5] and in experiment [6] was greater than 100 µM each time. Moreover, the TGI in [7], in [8], in experiment [9], in experiment [10] and in [11] was greater than 100 µM each time.
For the compound `c1ccc(C/C(=N\Nc2nc3ccccc3[nH]2)c2ccccn2)cc1`, the TGI in [1] was 1.58 µM; in experiment [2], 15.4 µM; in experiment [3], 11.1 µM; in experiment [4], 6.78 µM; in experiment [5], 16.1 µM; in experiment [6], 15.6 µM. The TGI stood at 17.9 µM in experiment [7]; 0.741 µM in [8]; 15.3 µM in experiment [9]; 8.14 µM in experiment [10]; 5.18 µM in experiment [11].
As to `CC(Nc1cccc(Cl)c1)c1ccncc1` (stereo not drawn), the TGI in [1], in [2], in experiment [3], in experiment [4], in [5] and in [6] was greater than 100 µM in each case. The TGI in experiment [7], in [8], in experiment [9], in experiment [10] and in [11] was greater than 100 µM throughout.
Turning to `CCN(CC)C1=Nc2ccccc2-n2ccnc2C1`, the TGI in experiment [1], in [2], in experiment [3], in experiment [4], in experiment [5] and in [6] was greater than 100 µM in each case. Besides, the TGI in experiment [7], in [8], in [9], in experiment [10] and in [11] was greater than 100 µM each time.
